The assay deals with T1, human GLUT1 (Homo sapiens, UniProt P11166).
T1 construct: expressed in transfected cells
T1 sequence (P11166 1-492): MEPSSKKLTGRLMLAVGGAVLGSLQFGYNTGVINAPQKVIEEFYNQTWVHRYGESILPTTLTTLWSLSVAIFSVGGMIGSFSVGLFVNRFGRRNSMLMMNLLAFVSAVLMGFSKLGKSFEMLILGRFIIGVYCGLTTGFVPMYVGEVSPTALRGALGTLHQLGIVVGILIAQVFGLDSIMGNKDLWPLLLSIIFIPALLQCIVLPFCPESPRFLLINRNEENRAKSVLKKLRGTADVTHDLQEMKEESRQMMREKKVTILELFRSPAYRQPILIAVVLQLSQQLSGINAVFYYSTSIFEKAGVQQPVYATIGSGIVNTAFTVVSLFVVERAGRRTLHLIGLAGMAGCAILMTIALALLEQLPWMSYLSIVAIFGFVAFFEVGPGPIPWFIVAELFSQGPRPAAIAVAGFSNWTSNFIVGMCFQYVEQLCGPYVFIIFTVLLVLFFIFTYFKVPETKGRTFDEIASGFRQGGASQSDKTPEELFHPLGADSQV
Description: [3H]-deoxy-D-glucose uptake assay, GLUT1. It counts as cell-based. The following applies: [3H]-deoxy-D-glucose uptake in HEK293 cells stably expressing human GLUT1. The procedure, abridged: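 HEK293 cells stably overexpressing human GLUT1 or GLUT2, seeded at 60,000 per well, treated with compounds in glucose-free uptake buffer for 30 min at 37 °C. [3H]-deoxy-D-glucose uptake quantified by scintillation counting after ice-cold PBS washes; IC50 determined.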
For the compound `Clc1ccc(-c2nc3ccc(-c4ccccc4)cn3c2CN2CCOCC2)cc1Cl` [Compound 206], the “GLUT1 pIC50” value was “++ (pIC50 5.00-5.99)”.

`COc1cccc(-c2nc3ccc(C4CC4)cn3c2CN2CCN(C(=O)C3CCC3)CC2)c1` [Compound 207]: the “GLUT1 pIC50” value is “+++ (pIC50 ≧ 6.00)”.

For the compound `COc1cccc(-c2nc3ccccn3c2CN2CCN(C(=O)C3CCC3)CC2)c1` [Compound 208], the “GLUT1 pIC50” value is on record as “+− (pIC50 < 4.00)”. The same measure for `Cc1cn2c(CN3CCOCC3)c(-c3ccc(Cl)cc3)nc2cn1` [Compound 209]: “+− (pIC50 < 4.00)”; for `CC(=O)NC1CCN(Cc2c(-c3ccc(Cl)cc3)nc3ccc(-c4ccccc4)cn23)CC1` [Compound 210]: “++ (pIC50 5.00-5.99)”. Next, `CCOC(=O)CN1CCN(Cc2c(-c3ccc(Cl)cc3)nc3ccc(-c4ccccc4)cn23)CC1` [Compound 211]: “+− (pIC50 < 4.00)”; `O=C(c1ccnnc1)N1CCN(Cc2c(-c3ccc(Cl)cc3)nc3ccc(-c4ccccc4)cn23)CC1` [Compound 212]: “+++ (pIC50 ≧ 6.00)”; `N#Cc1ccccc1-c1ccc2nc(-c3ccc(Cl)cc3)c(CN3CCN(C(=O)C4CCC4)CC3)n2c1` [Compound 213]: “+++ (pIC50 ≧ 6.00)”. The same measure for `CS(=O)(=O)Nc1ccc2nc(-c3ccc(Cl)cc3)c(CN3CCOCC3)n2c1` [Compound 215]: “++ (pIC50 5.00-5.99)”; for `C=C(C)c1cn2c(CN3CCOCC3)c(-c3ccc(Cl)cc3)nc2cn1` [Compound 216]: “+++ (pIC50 ≧ 6.00)”. On to `COCC(=O)N1CCN(Cc2c(-c3ccc(Cl)cc3)nc3ccc(-c4ccccc4C#N)cn23)CC1` [Compound 218], for which the “GLUT1 pIC50” value is “+++ (pIC50 ≧ 6.00)”. The same measure for `CCC(=O)N1CCN(Cc2c(-c3ccc(Cl)cc3)nc3ccc(-c4ccccc4C#N)cn23)CC1` [Compound 219]: “+++ (pIC50 ≧ 6.00)”; for `N#Cc1ccccc1-c1ccc2nc(-c3ccc(Cl)cc3)c(CN3CCN(C(=O)c4ccncc4)CC3)n2c1` [Compound 220]: “+++ (pIC50 ≧ 6.00)”. Next, `N#Cc1ccccc1-c1ccc2nc(-c3ccc(Cl)cc3)c(CN3CCN(C(=O)c4cnccn4)CC3)n2c1` [Compound 221]: “+++ (pIC50 ≧ 6.00)”.

For the compound `O=C(O)CN1CCN(Cc2c(-c3ccc(Cl)cc3)nc3ccc(-c4ccccc4)cn23)CC1` [Compound 223], the “GLUT1 pIC50” value is given as “+− (pIC50 < 4.00)”. Next, `COCC(=O)N1CCN(Cc2c(-c3ccc(Cl)cc3)nc3ccc(-c4c(F)cccc4F)cn23)CC1` [Compound 225]: “+++ (pIC50 ≧ 6.00)”; `CC(=O)N1CCN(Cc2c(-c3ccc(Cl)cc3)nc3ccc(-c4c(F)cccc4F)cn23)CC1` [Compound 226]: “+++ (pIC50 ≧ 6.00)”.

On to `CN(CC(=O)N(C)C)Cc1c(-c2ccc(Cl)cc2)nc2ccc(-c3ccccc3)cn12` [Compound 228], for which the “GLUT1 pIC50” value is reported as “+− (pIC50 < 4.00)”. Next, `O=C(c1cocn1)N1CCN(Cc2c(-c3ccc(Cl)cc3)nc3ccc(-c4ccccc4)cn23)CC1` [Compound 229]: “+++ (pIC50 ≧ 6.00)”; `O=C(c1ccc(=O)[nH]c1)N1CCN(Cc2c(-c3ccc(Cl)cc3)nc3ccc(-c4ccccc4)cn23)CC1` [Compound 230]: “+++ (pIC50 ≧ 6.00)”; `CC(=O)N1CCCN(Cc2c(-c3ccc(Cl)cc3)nc3ccc(-c4ccccc4)cn23)CC1` [Compound 231]: “+++ (pIC50 ≧ 6.00)”. The same measure for `O=C(c1cnco1)N1CCN(Cc2c(-c3ccc(Cl)cc3)nc3ccc(-c4ccccc4)cn23)CC1` [Compound 233]: “+++ (pIC50 ≧ 6.00)”; for `O=C(c1ccncc1)N1CCN(Cc2c(-c3ccc(Cl)cc3)nc3ccc(-c4c(F)cccc4F)cn23)CC1` [Compound 235]: “+++ (pIC50 ≧ 6.00)”; for `Clc1ccc(-c2nc3ccc(C4CCOCC4)cn3c2CN2CCOCC2)cc1` [Compound 237]: “++ (pIC50 5.00-5.99)”. The same measure for `N#Cc1ccccc1-c1ccc2nc(-c3ccc(Cl)cc3)c(CN3CCNC(=O)C3)n2c1` [Compound 239]: “+++ (pIC50 ≧ 6.00)”.

The record behind these values is patent publication US20160120863A1, “SLC2A TRANSPORTER INHIBITORS” (IOMET PHARMA LTD., priority 2013, published 2016).
